In PubChem BioAssay AID298 (DTP/NCI, 2004):
“And” between values parts separate entries of the source, which are not always exact repeats. Identical values can stand only once. Inconclusive results are not listed.

Tested on: MX-1 breast xenograft, intrarenal, nude mice, tumor weight
Experiment: NCI In Vivo Anticancer Drug Screen. Data for tumor model Human Mammary Carcinoma MX-1 Xenograft (intrarenal inoculation) in NU/NU BALB/C (nude) mice
Details: endpoint: mean tumor weight change, higher = larger tumour
Method in brief: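 Transplantable tumors established in mice; animals dosed with compound or vehicle; survival or tumor size then recorded. Result reported as treated (T) divided by vehicle control (C).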

[1] = dose: 300.0 mg/kg/injection, schedule: Q04DX003 (ip), vehicle: saline with Tween-80

Question: For `CC1OC(O[C@H]2/C=C/C=C/C=C/C=C/C=C/C=C/C=C/[C@H](C)[C@@H](O)[C@@H](C)[C@H](C)OC(=O)C[C@H](O)C[C@H](O)CC[C@@H](O)[C@H](O)C[C@H](O)C[C@]3(O)C[C@H](O)[C@@H](C(=O)O)[C@H](C2)O3)C(O)C(N)C1O` (stereo not given in full), which T/C (dose: 12.5 mg/kg/injection, schedule: Q04DX003 (ip), vehicle: suspension in saline) is on record?
Answer: 61 % of control

Question: And the T/C (dose: 25.0 mg/kg/injection, schedule: Q04DX003 (ip), vehicle: suspension in saline)?
Answer: 57 % of control

Question: And the T/C (dose: 50.0 mg/kg/injection, schedule: Q04DX003 (ip), vehicle: suspension in saline)?
Answer: 77 % of control

Question: What about the T/C (dose: 100.0 mg/kg/injection, schedule: Q04DX003 (ip), vehicle: suspension in saline) of the same molecule?
Answer: 84 % of control and 89 % of control

Question: What about the T/C (dose: 200.0 mg/kg/injection, schedule: Q04DX003 (ip), vehicle: suspension in saline) of the same molecule?
Answer: 73 % of control

Question: What about the T/C (dose: 400.0 mg/kg/injection, schedule: Q04DX003 (ip), vehicle: suspension in saline) of the same molecule?
Answer: 79 % of control

Question: For `N#Cc1c(-c2ccccc2)c(-c2ccccc2)nn(CC(=O)O)c1=O`, which T/C (dose: 100.0 mg/kg/injection, schedule: Q04DX003 (ip), vehicle: distilled water + Tween-80) is on record?
Answer: 120 % of control

Question: What about the T/C (dose: 200.0 mg/kg/injection, schedule: Q04DX003 (ip), vehicle: distilled water + Tween-80) of the same molecule?
Answer: 85 % of control

Question: Which T/C (dose: 0.31 micrograms/kg/injection, schedule: Q04DX003 (ip), vehicle: alcohol) does the source give for `C=C(OC)C(Nc1cc(OC)c(OC)cc1C(=O)OC1CC(O[C@@H]2C(=O)C(NC(=O)OC)=C3/C(=C\CSSSC)[C@]2(O)C#C/C=C\C#C[C@@H]3OC2OC(C)C(NOC3CC(O)C(SC)C(C)O3)C(O)C2OC2CC(OC)C(NCCC)CO2)OC(C)C1O)OC` (stereo not given in full) here?
Answer: 71 % of control

Question: And the T/C (dose: 0.32 micrograms/kg/injection, schedule: Q04DX003 (ip), vehicle: saline + alcohol)?
Answer: 39 % of control

Question: What about the T/C (dose: 0.62 micrograms/kg/injection, schedule: Q04DX003 (ip), vehicle: alcohol) of the same molecule?
Answer: 68 % of control

Question: And the T/C (dose: 0.64 micrograms/kg/injection, schedule: Q04DX003 (ip), vehicle: saline + alcohol)?
Answer: 17 % of control

Question: What about the T/C (dose: 1.25 micrograms/kg/injection, schedule: Q04DX003 (ip), vehicle: alcohol) of the same molecule?
Answer: 22 % of control

Question: What about the T/C (dose: 1.28 micrograms/kg/injection, schedule: Q04DX003 (ip), vehicle: saline + alcohol) of the same molecule?
Answer: 27 % of control

Question: What about the T/C (dose: 2.5 micrograms/kg/injection, schedule: Q04DX003 (ip), vehicle: alcohol) of the same molecule?
Answer: 26 % of control

Question: And the T/C (dose: 2.56 micrograms/kg/injection, schedule: Q04DX003 (ip), vehicle: saline + alcohol)?
Answer: 13 % of control

Question: What about the T/C (dose: 5.0 micrograms/kg/injection, schedule: Q04DX003 (ip), vehicle: alcohol) of the same molecule?
Answer: 12 % of control

Question: Which T/C (dose: 150.0 mg/kg/injection, schedule: Q04DX003 (ip), vehicle: water) does the source give for `CC(=O)NO` here?
Answer: 78 % of control

Question: And the T/C (dose: 300.0 mg/kg/injection, schedule: Q04DX003 (ip), vehicle: water)?
Answer: 113 % of control

Question: And the T/C (dose: 600.0 mg/kg/injection, schedule: Q04DX003 (ip), vehicle: water)?
Answer: 79 % of control

Question: And the T/C (dose: 1200.0 mg/kg/injection, schedule: Q04DX003 (ip), vehicle: water)?
Answer: 74 % of control

Question: With `CCS/C(SC)=C(/c1ccccc1)[P+](c1ccccc1)(c1ccccc1)c1ccccc1` as the molecule, how does the T/C (dose: 9.38 mg/kg/injection, schedule: Q04DX003 (sc), vehicle: Klucel (hydroxypropylcellulose) (HPC)) read?
Answer: 92 % of control

Question: And the T/C (dose: 18.75 mg/kg/injection, schedule: Q04DX003 (sc), vehicle: Klucel (hydroxypropylcellulose) (HPC))?
Answer: 111 % of control

Question: What about the T/C (dose: 37.5 mg/kg/injection, schedule: Q04DX003 (sc), vehicle: Klucel (hydroxypropylcellulose) (HPC)) of the same molecule?
Answer: 75 % of control

Question: Which T/C (dose: 150.0 mg/kg/injection, schedule: Q04DX003 (ip), vehicle: saline with Tween-80) does the source give for `CNC(=O)Sc1ccc(C)c(N(C)C)c1` here?
Answer: 92 % of control

Question: And the T/C [1]?
Answer: 44 % of control

Question: `S=C(NCNC(=S)c1ccncc1)c1ccncc1` was tested. Which T/C [1] did it give?
Answer: 97 % of control

Question: What about the T/C (dose: 600.0 mg/kg/injection, schedule: Q04DX003 (ip), vehicle: saline with Tween-80) of the same molecule?
Answer: 40 % of control

Question: For `Cc1ccc(/C=C/C(=O)/C=C/c2ccc(C)o2)o1`, which T/C (dose: 100.0 mg/kg/injection, schedule: Q04DX003 (ip), vehicle: DMSO) is on record?
Answer: 94 % of control

Question: And the T/C (dose: 200.0 mg/kg/injection, schedule: Q04DX003 (ip), vehicle: DMSO)?
Answer: 112 % of control

Question: What about the T/C (dose: 800.0 mg/kg/injection, schedule: Q04DX003 (ip), vehicle: DMSO) of the same molecule?
Answer: 107 % of control

Question: Which T/C (dose: 21.6 mg/kg/injection, schedule: Q04DX003 (ip), vehicle: other) does the source give for `CS(=O)(=O)CS(=O)(=O)OCCCl` here?
Answer: 61 % of control

Question: What about the T/C (dose: 36.0 mg/kg/injection, schedule: Q04DX003 (ip), vehicle: other) of the same molecule?
Answer: 28 % of control

Question: What about the T/C (dose: 37.5 mg/kg/injection, schedule: Q04DX003 (sc), vehicle: suspension in saline) of the same molecule?
Answer: 106 % of control

Question: And the T/C (dose: 60.0 mg/kg/injection, schedule: Q04DX003 (ip), vehicle: other)?
Answer: 25 % of control

Question: And the T/C (dose: 75.0 mg/kg/injection, schedule: Q04DX003 (sc), vehicle: suspension in saline)?
Answer: 106 % of control

Question: What about the T/C (dose: 99.6 mg/kg/injection, schedule: Q04DX003 (ip), vehicle: dextrose) of the same molecule?
Answer: 100 % of control

Question: What about the T/C (dose: 99.6 mg/kg/injection, schedule: Q04DX003 (ip), vehicle: other) of the same molecule?
Answer: 19 % of control

Question: What about the T/C (dose: 100.0 mg/kg/injection, schedule: Q04DX003 (ip), vehicle: other) of the same molecule?
Answer: 43 % of control

Question: What about the T/C (dose: 150.0 mg/kg/injection, schedule: Q04DX003 (sc), vehicle: suspension in saline) of the same molecule?
Answer: 54 % of control

Question: What about the T/C (dose: 166.0 mg/kg/injection, schedule: Q04DX003 (ip), vehicle: dextrose) of the same molecule?
Answer: 37 % of control

Question: What about the T/C (dose: 166.0 mg/kg/injection, schedule: Q04DX003 (ip), vehicle: other) of the same molecule?
Answer: 13 % of control

Question: And the T/C (dose: 166.7 mg/kg/injection, schedule: Q04DX003 (ip), vehicle: other)?
Answer: 20 % of control

Question: What about the T/C (dose: 276.67 mg/kg/injection, schedule: Q04DX003 (ip), vehicle: dextrose) of the same molecule?
Answer: 19 % of control

Question: What about the T/C (dose: 276.67 mg/kg/injection, schedule: Q04DX003 (ip), vehicle: other) of the same molecule?
Answer: 10 % of control

Question: For `Cc1cc(N/N=C/c2ccccn2)nc2ccccc12`, which T/C (dose: 300.0 mg/kg/injection, schedule: Q04DX003 (sc), vehicle: Klucel (hydroxypropylcellulose) (HPC)) is on record?
Answer: 74 % of control

Question: And the T/C (dose: 600.0 mg/kg/injection, schedule: Q04DX003 (sc), vehicle: Klucel (hydroxypropylcellulose) (HPC))?
Answer: 73 % of control

Question: And the T/C (dose: 1200.0 mg/kg/injection, schedule: Q04DX003 (sc), vehicle: Klucel (hydroxypropylcellulose) (HPC))?
Answer: 43 % of control

Question: And the T/C (dose: 2400.0 mg/kg/injection, schedule: Q04DX003 (sc), vehicle: Klucel (hydroxypropylcellulose) (HPC))?
Answer: 68 % of control

Question: Which T/C (dose: 3.75 mg/kg/injection, schedule: Q01DX010 (ip), vehicle: saline) does the source give for `CC(O)CCC(=O)c1ccoc1` (stereo not given) here?
Answer: 191 % of control

Question: And the T/C (dose: 7.5 mg/kg/injection, schedule: Q01DX010 (ip), vehicle: saline)?
Answer: 95 % of control and 120 % of control

Question: What about the T/C (dose: 60.0 mg/kg/injection, schedule: Q01DX010 (ip), vehicle: saline) of the same molecule?
Answer: 49 % of control

Question: With `O=CC(O)C(O)C(O)C(O)CO` (stereo not given) as the molecule, how does the T/C (dose: 75.0 mg/kg/injection, schedule: Q04DX003 (ip), vehicle: saline) read?
Answer: 72 % of control

Question: And the T/C (dose: 150.0 mg/kg/injection, schedule: Q04DX003 (ip), vehicle: saline)?
Answer: 113 % of control

Question: And the T/C (dose: 300.0 mg/kg/injection, schedule: Q04DX003 (ip), vehicle: saline)?
Answer: 65 % of control

Question: What about the T/C (dose: 600.0 mg/kg/injection, schedule: Q04DX003 (ip), vehicle: saline) of the same molecule?
Answer: 93 % of control

Question: What about the T/C (dose: 1200.0 mg/kg/injection, schedule: Q04DX003 (ip), vehicle: saline) of the same molecule?
Answer: 59 % of control

Question: What does the source list for `O=C1C2=C(Nc3cc([N+](=O)[O-])ccc3N2)OC1c1ccccn1` (stereo not given)?
Answer: T/C (dose: 50.0 mg/kg/injection, schedule: Q04DX003 (ip), vehicle: Klucel (hydroxypropylcellulose) (HPC)): 87 % of control; T/C (dose: 100.0 mg/kg/injection, schedule: Q04DX003 (ip), vehicle: Klucel (hydroxypropylcellulose) (HPC)): 66 % of control; T/C (dose: 200.0 mg/kg/injection, schedule: Q04DX003 (ip), vehicle: Klucel (hydroxypropylcellulose) (HPC)): 118 % of control; T/C (dose: 400.0 mg/kg/injection, schedule: Q04DX003 (ip), vehicle: Klucel (hydroxypropylcellulose) (HPC)): 63 % of control

Question: Which results are given for `CN(C)C1C(=O)C(C(=O)NP(=O)(NCCCO)N(CCCl)CCCl)=C(O)C2(O)C(=O)C3=C(O)c4c(O)cccc4C(C)(O)C3CC12` (stereo not given)?
Answer: T/C (dose: 300.0 mg/kg/injection, schedule: Q04DX003 (sc), vehicle: saline with Tween-80): -100 % of control and -98 % of control; T/C (dose: 600.0 mg/kg/injection, schedule: Q04DX003 (sc), vehicle: saline with Tween-80): -100 % of control

Question: Which results are given for `O=c1c(O)c(-c2cc(O)c(O)c(O)c2)oc2cc(O)cc(O)c12`?
Answer: T/C (dose: 50.0 mg/kg/injection, schedule: Q04DX003 (sc), vehicle: saline with Tween-80): 95 % of control; T/C (dose: 100.0 mg/kg/injection, schedule: Q04DX003 (sc), vehicle: saline with Tween-80): 111 % of control; T/C (dose: 200.0 mg/kg/injection, schedule: Q04DX003 (sc), vehicle: saline with Tween-80): 115 % of control; T/C (dose: 400.0 mg/kg/injection, schedule: Q04DX003 (sc), vehicle: saline with Tween-80): 179 % of control

Question: With `CNc1n[n+](-c2ccccc2)no1` as the molecule, how does the T/C (dose: 18.25 mg/kg/injection, schedule: Q04DX003 (sc), vehicle: water) read?
Answer: 88 % of control

Question: What about the T/C (dose: 37.5 mg/kg/injection, schedule: Q04DX003 (sc), vehicle: water) of the same molecule?
Answer: 81 % of control

Question: And the T/C (dose: 75.0 mg/kg/injection, schedule: Q04DX003 (sc), vehicle: water)?
Answer: 91 % of control
